In patent publication US4459227A, “Para-hydroxyphenylhydrazines as in situ precursors of iminoquinones and quinones” (Duke University, priority 1981, dated 1984):

Columns and labels:
blue-green algae = conditions: cited from earlier work
liver = conditions: cited from earlier work
fungi = conditions: cited from earlier work
phage (viral) infections = conditions: tissue cultures, p-benzoquinone generated in situ; cited from earlier work
Salmonella typhosa = conditions: 1911; cited from earlier work
[1] = Spectral study of rearrangement/reactions with nucleophiles, reducing and oxidizing agents; type: physicochemical; conditions: for Final Maximum (nm): pH 8-9, ten-fold excess
Description: In order to characterize the products of hydrolysis of AA-CHP's, the hydrolysis of Leu-CHP by LAP was studied by absorption spectrophotometry. […] This was also true for the new maximum at 350 nm and for a second new "maximum" which appeared as a low, broad "peak" merging with 350 peak and centered at about 400 nm. However, by 22 minutes (not shown) the absorbance at 300 and 400 nm had diminished in intensity while the 350 maximum continued to increase, albeit at a slower rate. At pH 7.0 (FIG. 8B), the absorbance at 300 nm continued to slowly increase in intensity even up to 90 minutes after dissolving CHP-OEt (0.2 mg) in DMSO (0.02 ml) into 0.05M Phosphate buffer (3 ml). Furthermore, a second maximum at 350 nm developed but it remaind smaller in intensity than the 300 nm peak.
Table 2 summarizes the results of several separate experiments involving the reactions of CHP-OEt, CHA-OEt, pIQ-OEt and pBQ (0.5-1.0 mM) with various nucleophiles (lysine, 3-MPA) reducing agents (NaBH4, 3-MPA) and oxidizing agents (NaIO4, O2) in ten-fold molar excess in Tris-HCl buffer (0.05M, pH 9.0).
In these studies, CHP-OEt, CHA-OEt and pBQ* were all pure compounds, thus, their absorption could be unequivocably assigned, pIQ-OEt was generated by the autoxidation of CHA-OEt in solution and its presence was noted by the appearance of one absorbance maximum at 400 nm and the development of a distinct yellow color to a previously clear solution of CHA-OEt. […] On the other hand, there was a dissimilarity between the spectra of CHP-OEt and CHA-OEt. CHA-OEt was oxidized by O2 or NaIO4 to the pIQ-OEt with a λmax =400 nm whereas NaIO4 had no effect on the rate or nature of spectral change that occurred when . . .

O=C1C(Cl)=C(Cl)C(=O)c2ccccc21 [2,3-dichloro-1,4-naphthoquinone]
inhibition of blue-green algae (blue-green algae): inhibited

CC(=O)N=C1C=CC(=O)C=C1 [N-acetyl-p-iminobenzoquinone]
toxic effects in the liver (liver): responsible for the toxic effects in the liver

O=C1C(Cl)=C(Cl)C(=O)C(Cl)=C1Cl [chloranil, 2,3,5,6-tetrachloro-1,4-benzoquinone]
antifungal properties (fungi): marked antifungal properties

Oc1ccc(O)cc1 [p-benzohydroquinone]
prevention of phage (viral) infections (phage (viral) infections): prevent phage (viral) infections from proliferating

O=C1C=CC(=O)C=C1 [pBQ, p-Benzoquinone, reference compound]
bactericidal activity (Salmonella typhosa): potent bactericidal substance | Final Maximum (nm) ([1]; compound added: 3-MPA): 300 nm | Final Maximum (nm) ([1]; compound added: Lysine): 350 nm | Initial Maximum (nm) ([1]; pH 8-9): 240 nm | peak appearing only after several hours with 3-MPA ([1]; ten-fold excess 3-MPA, pH 9.0): 350 nm | initial peak with lysine (rapidly diminished) ([1]; ten-fold excess lysine, pH 9.0): 300 nm
